Read-outs that look alike come from different tables or passages of the source.
What was measured:
HEK293 = assay: Cell growth inhibition experiment (SRB), HEK293; assay type: cell-based, human; conditions: 96 hours incubation, read-out: IC50 (μM) for cancer cell line HEK293
Method: (§1) The 4-(aryl)-N-(3-alkoxyfuro[2,3-b]pyrazin-2-yl)-piperazine-1-carboxamide derivative compounds synthesized according to Examples 1 to 60 of the present invention were treated with various human tissue-derived cancer cell lines cultured according to Experimental Example 1, and thus the inhibitory effect of the growth of human cancer cells was confirmed. The cell growth inhibition experiment was conducted using the sulforhodamine B (SRB) technique (Skehan et al., J. National Cancer Institute, 1990, 82: 1107-1112). Specifically, each cell line was seeded in a 96-well plate at a density of 2 to 3×10^3 cells/well, cultured overnight, and then treated with the 4-(aryl)-N-(3-alkoxyfuro[2,3-b]pyrazin-2-yl)-piperazine-1-carboxamide derivative compounds of the present invention. The experiment was repeated 3 times for each compound. Cells treated with each compound were additionally incubated for 96 hours, fixed with 10% trichloroacetic acid (TCA), and then left at 4° C. for 1 hour. The resultant was washed 3 times with distilled water. Thereafter, each cell was treated with 0.4% sulforhodamine B dissolved in 1% acetic acid, stained for 30 minutes, and then washed 4 times with 1% acetic acid. The resultant was dried in the air. After shaking the resultant in Tris solution (10 mM) for 5 minutes, the absorbance was measured at 530 nm using a Benchmark Plus Microplate reader (Bio-Rad Laboratories, Hercules, Calif.).
(§2) In order to convert the OD530 value to the number of viable cells per each well, the measured OD530 value was compared to the standard OD530-vs.-cell number curve of each cell line. The percent survival was calculated using the following formula: % survival=Nlive cells(test)/Nlive cells(control)×100

A549 = assay: Cell growth inhibition experiment (SRB), A549; assay type: cell-based; conditions: Homo sapiens, A549, 96 h, 96 hours incubation, read-out: IC50 (μM) for cancer cell line A549
Method: as §1, §2

[1] = test system: PANC-1 (pancreatic cancer) cell line; assay: Cell growth inhibition experiment (SRB), PANC-1; assay type: cell-based; conditions: Homo sapiens, PANC-1, 96 h, 96 hours incubation
Method: (§3) The cell lines below were used in order to confirm the efficacy of the compounds synthesized in Examples 1 to 60. Human PANC-1 (pancreatic cancer) and MDA-MB-231 (breast cancer) cell lines were obtained from the American Type Culture Collection (ATCC; Manassas, Va.); and HN31 (head and neck cancer) and UMRC2 (kidney cancer) cell lines were secured from the United States National Institutes of Health (Bethesda, Md.). The MDA-MB-231, UMRC2, HN31, and PANC-1 cell lines were cultured in Dulbecco modified Eagle medium (DMEM; Invitrogen, Carlsbad, Calif.) containing FBS (10%), HEPES (10 mM), penicillin (100 U/mL), and streptomycin (100 μg/mL). All cell lines were cultured in an incubator (37° C., 5% CO2).
as §1, §2

SK-OV-3 = assay: Cell growth inhibition experiment (SRB), SK-OV-3; assay type: cell-based, human; conditions: 96 hours incubation, read-out: IC50 (μM) for cancer cell line SK-OV-3
Method: as §1, §2

[2] = test system: UMRC2 (kidney cancer) cell line; assay: Cell growth inhibition experiment (SRB), UMRC2; assay type: cell-based, human; conditions: 96 hours incubation
Method: as §3, §1, §2

[3] = test system: HN31 (head and neck cancer) cell line; assay: Cell growth inhibition experiment (SRB), HN31; assay type: cell-based, human; conditions: 96 hours incubation
Method: as §3, §1, §2

HT29 = assay: Cell growth inhibition experiment (SRB), HT29; assay type: cell-based, human; conditions: 96 hours incubation, read-out: IC50 (μM) for cancer cell line HT29
Method: as §1, §2

[4] = test system: MDA-MB-231 (breast cancer) cell line; assay: Cell growth inhibition experiment (SRB), MDA-MB-231; assay type: cell-based, human; conditions: 96 hours incubation
Method: as §3, §1, §2

HUVEC = assay: Cell growth inhibition experiment (SRB), HUVEC; assay type: cell-based, human; conditions: 96 hours incubation, read-out: IC50 (μM) […]
Method: as §1, §2

| SMILES | IC50 (HEK293; Homo sapiens, HEK293, 96 h) [µM] | IC50 (A549) [µM] | IC50 [1] [µM] | IC50 (SK-OV-3; Homo sapiens, SK-OV-3, 96 h) [µM] | IC50 ([2]; Homo sapiens, UMRC2, 96 h) [µM] | IC50 ([3]; Homo sapiens, 96 h) [µM] | IC50 (HT29; Homo sapiens, HT-29, 96 h) [µM] | IC50 ([4]; Homo sapiens, MDA-MB-231, 96 h) [µM] | IC50 (HUVEC; Homo sapiens, HUVEC, 96 h) [µM] | IC50 (HEK293) [µM] | IC50 (SK-OV-3) [µM] | IC50 [2] [µM] | IC50 [3] [µM] | IC50 (HT29) [µM] | IC50 [4] [µM] | IC50 (HUVEC) [µM] |
| --- | --- | --- | --- | --- | --- | --- | --- | --- | --- | --- | --- | --- | --- | --- | --- | --- |
| CCOc1nc2oc(C)cc2nc1NC(=O)N1CCN(c2cc(OC)cc(OC)c2)CC1 [Example 31, 4-(3,5-Dimethoxyphenyl)-N-(3-ethoxy-6-methylfuro[2,3-b]pyrazin-2-yl)piperazine-1-carboxamide] | < 2.5 | 1.25 | 0.44 | < 2.5 | 0.36 | 1.63 | < 2.5 | 0.12 | < 2.5 |  |  |  |  |  |  |  |
| CCOc1nc2occc2nc1NC(=O)N1CCN(c2cc(F)cc(OC)c2)CC1 [Example 13, N-(3-Ethoxyfuro[2,3-b]pyrazin-2-yl)-4-(3-fluoro-5-methoxyphenyl)piperazine-1-carboxamide] | < 2.5 | < 2.5 | 0.65 | < 2.5 | 0.26 | 0.72 | < 2.5 | 0.16 | < 2.5 |  |  |  |  |  |  |  |
| CCOc1nc2occc2nc1NC(=O)N1CCN(c2cc(OC)cc(OC)c2)CC1 [Example 11, 4-(3,5-Dimethoxyphenyl)-N-(3-ethoxyfuro[2,3-b]pyrazin-2-yl)piperazine-1-carboxamide] | 0.65 | 1.51 | 0.24 | 1.27 | 0.07 | 0.41 | 1.31 | 0.07 | 0.07 |  |  |  |  |  |  |  |
| CCOc1nc2oc(Cl)cc2nc1NC(=O)N1CCN(c2cc(C(F)(F)F)cc(C(F)(F)F)c2)CC1 [Example 59, 4-(3,5-Bis(trifluoromethyl)phenyl)-N-(6-chloro-3-ethoxyfuro[2,3-b]pyrazin-2-yl)piperazine-1-carboxamide] | < 2.5 | < 2.5 | 1.98 | < 2.5 | 1.87 | < 2.5 | < 2.5 | 1.68 | < 2.5 |  |  |  |  |  |  |  |
| CCOc1nc2occc2nc1NC(=O)N1CCN(c2cc(C)cc(F)c2)CC1 [Example 16, N-(3-Ethoxyfuro[2,3-b]pyrazin-2-yl)-4-(3-fluoro-5-methylphenyl)piperazine-1-carboxamide] | < 2.5 | < 2.5 | < 2.5 | < 2.5 | 0.44 | < 2.5 | < 2.5 | 0.24 | < 2.5 |  |  |  |  |  |  |  |
| COc1nc2occc2nc1NC(=O)N1CCN(c2cc(C(F)(F)F)cc(C(F)(F)F)c2)CC1 [Example 9, 4-(3,5-Bis(trifluoromethyl)phenyl)-N-(3-methoxyfuro[2,3-b]pyrazin-2-yl)piperazine-1-carboxamide] | < 2.5 | < 2.5 | < 2.5 | < 2.5 | < 2.5 | < 2.5 | < 2.5 | < 2.5 | < 2.5 |  |  |  |  |  |  |  |
| CCOc1nc2occc2nc1NC(=O)N1CCN(c2cc(C)cc(C)c2)CC1 [Example 15, 4-(3,5-Dimethylphenyl)-N-(3-ethoxyfuro[2,3-b]pyrazin-2-yl)piperazine-1-carboxamide] | < 2.5 | < 2.5 | 1.12 | < 2.5 | 0.25 | 0.78 | < 2.5 | 0.24 | < 2.5 |  |  |  |  |  |  |  |
| COc1cc(C)cc(N2CCN(C(=O)Nc3nc4ccoc4nc3OC)CC2)c1 [Example 2, 4-(3-Methoxy-5-methylphenyl)-N-(3-methoxyfuro[2,3-b]pyrazin-2-yl)piperazine-1-carboxamide] | 1.93 | 0.23 | 0.45 | 0.82 | 0.38 | 0.49 | 0.62 | 0.26 | 0.91 |  |  |  |  |  |  |  |
| CCOc1nc2occc2nc1NC(=O)N1CCN(c2cc(OC)cc(OCCN(C)C)c2)CC1 [Example 14, 4-(3-(2-(Dimethylamino)ethoxy)-5-methoxyphenyl)-N-(3-ethoxyfuro[2,3-b]pyrazin-2-yl)piperazine-1-carboxamide] | < 2.5 | 1.85 | 1.23 | < 2.5 | 0.68 | 0.65 | < 2.5 | 0.34 | < 2.5 |  |  |  |  |  |  |  |
| COc1cc(OCCN(C)C)cc(N2CCN(C(=O)Nc3nc4cc(C)oc4nc3OC)CC2)c1 [Example 24, 4-(3-(2-(Dimethylamino)ethoxy)-5-methoxyphenyl)-N-(3-methoxy-6-methylfuro[2,3-b]pyrazin-2-yl)piperazine-1-carboxamide] | 0.25 | 0.87 | 0.44 | 0.12 | 0.36 | < 2.5 | 0.36 | 0.12 | < 2.5 |  |  |  |  |  |  |  |
| COc1nc2oc(C)cc2nc1NC(=O)N1CCN(c2cc(C(F)(F)F)cc(C(F)(F)F)c2)CC1 [Example 29, 4-(3,5-Bis(trifluoromethyl)phenyl)-N-(3-methoxy-6-methylfuro[2,3-b]pyrazin-2-yl)piperazine-1-carboxamide] | < 2.5 | < 2.5 | < 2.5 | < 2.5 | < 2.5 | < 2.5 | < 2.5 | < 2.5 | < 2.5 |  |  |  |  |  |  |  |
| CCOc1nc2oc(C)cc2nc1NC(=O)N1CCN(c2cc(C)cc(C)c2)CC1 [Example 35, 4-(3,5-Dimethylphenyl)-N-(3-ethoxy-6-methylfuro[2,3-b]pyrazin-2-yl)piperazine-1-carboxamide] | 1.12 | 1.02 | 0.43 | < 2.5 | 0.54 | 0.44 | < 2.5 | 0.24 | < 2.5 |  |  |  |  |  |  |  |
| CCOc1nc2occc2nc1NC(=O)N1CCN(c2cc(F)cc(F)c2)CC1 [Example 17, 4-(3,5-Difluorophenyl)-N-(3-ethoxyfuro[2,3-b]pyrazin-2-yl)piperazine-1-carboxamide] | < 2.5 | < 2.5 | < 2.5 | < 2.5 | 1.65 | < 2.5 | < 2.5 | 0.24 | < 2.5 |  |  |  |  |  |  |  |
| COc1cc(OC)cc(N2CCN(C(=O)Nc3nc4cc(C)oc4nc3OC)CC2)c1 [Example 21, 4-(3,5-Dimethoxyphenyl)-N-(3-methoxy-6-methylfuro[2,3-b]pyrazin-2-yl)piperazine-1-carboxamide] | 1.25 | 1.63 | 2.12 | 1.85 | 1.74 | < 2.5 | 1.85 | 0.44 | < 2.5 |  |  |  |  |  |  |  |
| COc1cc(F)cc(N2CCN(C(=O)Nc3nc4cc(Cl)oc4nc3OC)CC2)c1 [Example 43, N-(6-Chloro-3-methoxyfuro[2,3-b]pyrazin-2-yl)-4-(3-fluoro-5-methoxyphenyl)piperazine-1-carboxamide] | 1.32 |  |  | 2.13 | 0.32 | 0.68 | 1.59 | 0.21 | 1.77 | < 2.5 | < 2.5 | 0.36 | 0.57 | < 2.5 | 0.12 | < 2.5 |
